# Data as given in PubChem BioAssay (NCI).
#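 48-hour exposure; five concentrations; linearly interpolated endpoints. Here, GI50 denotes the concentration required for 50% inhibition of growth. TGI: concentration producing complete growth inhibition.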
# Columns and labels:
# Test in all cases: inhibition of tumour cell growth, NCI panel, 48 h
# [1] = test system: 786-0 renal
# [2] = test system: ACHN renal
# [3] = test system: HOP-92 NSCLC
# [4] = test system: K-562 leukemia
# [5] = test system: LOX IMVI melanoma
# [6] = test system: MALME-3M melanoma
# [7] = test system: NCI-H23 lung
# [8] = test system: OVCAR-5 ovarian
# [9] = test system: RXF 393 renal
# [10] = test system: SF-295 CNS
Compound,TGI [1] [µM],TGI [2] [µM],TGI [3] [µM],TGI [4] [µM],TGI [5] [µM],TGI [6] [µM],TGI [7] [µM],TGI [8] [µM],TGI [9] [µM],TGI [10] [µM],GI50 [1] [µM],GI50 [2] [µM],GI50 [4] [µM],GI50 [5] [µM],GI50 [6] [µM],GI50 [7] [µM],GI50 [8] [µM],GI50 [9] [µM],GI50 [10] [µM],GI50 [3] [µM]
NC(N)=NS(=O)(=O)c1ccc(NC(=O)c2ccc(Cl)c3c(Nc4ccc(S(=O)(=O)N=C(N)N)cc4)c4ccccc4nc23)cc1,> 100,> 100,79.9,> 100,> 100,> 100,> 100,> 100,> 100,> 100,,,,,,,,,,
Cc1cc(Cl)ccc1N1C(=O)C(=O)C(c2nc3ccccc3s2)/C(=N\NC(=O)c2ccccc2O)C1=O (stereo unspecified),> 100,> 100,> 100,> 100,> 100,> 100,> 100,> 100,> 100,> 100,,,,,,,,,,
CC(C)c1cccc2sc(NC(=O)C(=O)CC(=O)c3ccc(F)cc3)nc12,> 100,> 100,> 100,> 100,> 100,> 100,> 100,> 100,> 100,> 100,,,,,,,,,,
COc1cc(C(C)c2cc3c(cc2OCCOCCOc2cc4c(cc2C(C)c2cc(OC)c(OC)c(OC)c2)OCO4)OCO3)cc(OC)c1OC (stereo unspecified),> 100,> 100,> 100,> 100,> 100,> 100,> 100,> 100,> 100,> 100,> 100,> 100,> 10,> 100,> 100,> 100,> 100,> 100,> 10,
CC(C)(C)OC(=O)N(CCCn1c2c(c3ccccc3c1=O)C(=O)c1ccccc1-2)CCN(CCCn1c2c(c3ccccc3c1=O)C(=O)c1ccccc1-2)C(=O)OC(C)(C)C,> 50,48.9,> 50,> 50,> 50,> 50,> 50,> 50,> 50,> 50,13.6,11.2,21.3,25.2,> 50,> 50,> 50,12.6,14,11.1
CNC1=C(Br)C(=O)C2=C(C1=O)C1C3=C(C(=O)C=CC3=O)C2c2ccccc21 (stereo unspecified),4.57,3.9,4.19,> 23.7,4.42,16.2,25.9,31.4,4.72,45.8,2.12,2.1,2.65,1.74,6.96,5.76,6.96,2.57,19.2,1.91
CCOc1ccccc1N=C(NC(=O)CC)SC,> 100,> 100,> 10,> 100,> 100,> 100,> 100,> 10,> 100,> 100,> 100,> 100,> 100,> 100,> 10,> 10,,> 100,> 100,
CC(C)(C)c1cc2c(OP(c3ccccc3)c3ccccc3)c(c1)Cc1cc(C(C)(C)C)cc(c1OP(c1ccccc1)c1ccccc1)Cc1cc(C(C)(C)C)cc(c1OP(c1ccccc1)c1ccccc1)Cc1cc(C(C)(C)C)cc(c1OP(c1ccccc1)c1ccccc1)C2,> 50,> 5,> 50,> 50,> 50,> 50,> 50,> 50,> 50,> 50,> 50,,> 50,22.9,> 50,> 50,> 50,,> 50,> 50
CC(=O)OC1C(O)COC(Oc2c(C)c3c4c(c2O)[C@@H](C)CC[C@@H]4[C@@H](C)C[C@H]3C=C(C)C)C1O (stereo partly specified),> 100,42.5,32,30.2,35.4,30.1,37.5,47.9,25.4,35.7,27,18.7,10.3,18,15.3,17.9,23.2,7.81,18.1,15.6
C[C@]1(O)CC(=O)[C@]2(O)C3=C(C=C[C@]2(O)C1)C(=O)c1c(O)cccc1C3=O,8.5,1.73,2.9,5.28,5.77,1.84,4.71,19.8,2.85,34.4,2.88,0.5,0.706,2.25,0.492,1.94,6.51,1.46,18.3,1.51
O=C(Oc1ccccc1Cl)c1cccnc1Nc1ccnc(C(F)(F)F)c1,31.4,50.2,> 100,27.6,14.2,41.1,23.7,> 100,42.6,52.5,14.7,22,4.61,3.96,8.29,8.79,39.6,19.1,21.3,35.2
COc1ccc(-c2ccc(=O)oc2-c2cc(OC)c(OC)c(OC)c2)cc1O,13.9,> 73.3,> 100,> 100,> 100,> 100,> 100,> 100,0.011,> 100,< 0.0228,0.135,< 0.0229,0.051,,0.0689,,< 0.01,0.0157,
Cc1ccc2nc(NC(=O)CSC(=S)N3CCN(Cc4ccccc4)CC3)sc2c1,> 100,> 100,> 100,> 100,> 21,> 100,> 100,> 100,> 100,> 100,> 100,> 100,> 100,,> 100,> 100,> 100,> 100,> 100,4.05
